From publication PMC11521937, “Expression and characterization of pantothenate energy‐coupling factor transporters as an anti‐infective drug target” (Protein Science : A Publication of the Protein Society, 2024)

What was measured:
Lactobacillus casei = assay: L. casei whole‐cell uptake assay; assay type: cell-based; settings: Lacticaseibacillus casei
ECF‐module (EcfTAA′) = ECF‐module (EcfTAA′) (Streptococcus pneumoniae, UniProt A0A0H2ZPG6+Q04HV7+Q97N51); assay: SPR binding to immobilized ECF‐module
Text: After identifying the optimal buffer and assessing the stability of the ECF transporter proteins, we proceeded to determine the binding affinity (K d) of small‐molecule inhibitors using SPR. This label‐free technique allows for the investigation of protein–ligand interactions in real time and requires protein immobilization (GE Healthcare Life Science, [2012]). […] The ECF‐PanT, ECF‐module, and ECF‐FolT2, each bearing a histidine tag, were immobilized on a high‐affinity poly‐nitrilotriacetic acid (poly‐NTA) sensor chip, which was initially activated using NiCl2. The His‐tagged proteins were then injected over the Ni^2+‐activated surface to strongly bind to the metal (Knecht et al., [2009]). The immobilization resonance unit (RU) levels were 12,000–15,000 for ECF‐PanT, 9000–12,000 for the ECF‐module, and 6000–9000 for ECF‐FolT2.
In this assay, we used HEPES buffer (10 mM HEPES, 50 mM NaCl, 50 μM EDTA, 0.05% (v/v) DDM, and a pH value of 7.5) as recommended by Xantec Bioanalytics, with a slight modification made to create a more favorable environment for the ECF proteins, enabling their stability to be maintained throughout the assay. Additionally, the protein was maintained in the buffer containing 5% (v/v) DMSO. For a more in‐depth description of the procedures, please refer to Appendix S1.
Surface plasmon resonance (SPR)
The SPR binding studies were performed using a Reichert 4SPR surface plasmon resonance spectrometer (Reichert Technologies, Buffalo, NY, USA), and medium–density NTA derivatized polycarboxylate hydrogel NiHC200M sensor chips (XanTec Bioanalytics, Düsseldorf, Germany). The experimental procedure involved two rounds of nickel activation and one immobilization step at a concentration of 200 nM. The proteins ECF-module (92,56146 kDa), ECF-PanT (113,8745 kDa), and ECF-FolT2 (112,16316 kDa) were immobilized in flow cells 1, 2, and 3, respectively according to the standard protocol as provided by Xantec bioanalytics with a slight modification based on the recombinant proteins. The flow-cell 4 was left blank to serve as a reference.
The immobilization buffer employed for the immobilization process consisted of 10 mM HEPES with a pH of 7.5, 50 mM NaCl, 50 µM EDTA, and 0.05% DDM without DMSO. Following the immobilization step, for the binding study of the compounds, the running buffer was exchanged for the mentioned buffer with 5% v/v DMSO. This was done to ensure consistency in the percentage of DMSO present in the solutions containing the respective testing inhibitors, as these inhibitors were soluble in the DMSO solvent. By maintaining the same DMSO concentration, we aimed to minimize any potential solvent-related effects on the assay results. All running buffers were filtered and degassed before use.
The system was initially primed with 5 mM NiCl2 with an association and dissociation time of 2 min for each to activate the NTA sensor chip. Then, the recombinant proteins with a concentration of 200 nM were injected at a flow rate of 10 µL/min for 8 min. Finally, the baseline check with the running […]
the ECF-module, ECF-PanT, and ECF-FolT2, respectively.
First, the calibration curve for correction of the DMSO effect was prepared; the concentrations were 3%, 3.5% 4%, 4.5%, 5%, 5.5%, 6%, 6.5%, and 7% v/v and were diluted with SPR buffer. Then, the […]
concentration of DMSO in all the samples was set to 5% v/v DMSO. The samples (200 µL) were loaded on a 96-well plate and were injected at a flow rate of 50 μL/min. Single-cycle kinetics were applied for KD determination. The association time was set to 60 s, and the dissociation phase was recorded for 120 s. For surface regeneration, 0.35 M EDTA (pH 8.5) and 0.1 M NaOH were used. Data processing and analysis were performed by Scrubber software (Version 2.0c, 2008, BioLogic Software). Sensorgrams were calculated by sequential subtractions of the corresponding curves obtained from the reference flow cell and the running buffer (blank). SPR responses were expressed in the resonance unit (RU). The KD […]

S. pneumoniae DSM‐20566 = assay: Galleria mellonella infection model with S. pneumoniae; assay type: in vivo; settings: S. pneumoniae OD600 1.5, after 3 days
Method: Next, we examined the antibacterial effect of the ECF inhibitors under in vivo conditions by using G. mellonella larvae. This model was adopted based on the work of Alhayek et al. ([2022]) and serves to assess the efficacy of ECF inhibitors against S. pneumoniae induced infection. Larvae were injected with the overnight culture of S. pneumoniae DSM‐20566, incubated for 3 days at 37°C and 5% CO2 without shaking, and survival rates were monitored daily for 3 days (Figure 4).
G. mellonella larvae were used as an in vivo infection model to test selected ECF inhibitors, following the methodology established by Alhayek et al. ([2022]). S. pneumoniae DSM‐20566 was cultured in Todd–Hewitt medium with 0.1% choline at 37°C with 5% CO2 until an OD600 of 1.5 or higher was reached. Larvae were infected by injecting 10 μL of the culture into the left proleg and incubated at 37°C, 5% CO2 for 72–96 h. Survival was monitored daily. Control groups received either PBS or no injection. […]. The larvae used in this study were purchased from VALOMOLIA Company (Strasbourg, France).

Sequence of ECF‐module (EcfTAA′) (Q04HV7 whole entry): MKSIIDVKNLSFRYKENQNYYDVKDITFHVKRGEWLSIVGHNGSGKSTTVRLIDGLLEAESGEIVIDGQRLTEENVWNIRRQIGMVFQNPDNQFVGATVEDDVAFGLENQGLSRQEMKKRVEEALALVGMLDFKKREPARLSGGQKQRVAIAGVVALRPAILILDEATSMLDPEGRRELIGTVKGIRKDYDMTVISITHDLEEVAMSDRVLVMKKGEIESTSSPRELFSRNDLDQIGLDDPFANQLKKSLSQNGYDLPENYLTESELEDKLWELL
Sequence of ECF‐module (EcfTAA′) (Q97N51 whole entry): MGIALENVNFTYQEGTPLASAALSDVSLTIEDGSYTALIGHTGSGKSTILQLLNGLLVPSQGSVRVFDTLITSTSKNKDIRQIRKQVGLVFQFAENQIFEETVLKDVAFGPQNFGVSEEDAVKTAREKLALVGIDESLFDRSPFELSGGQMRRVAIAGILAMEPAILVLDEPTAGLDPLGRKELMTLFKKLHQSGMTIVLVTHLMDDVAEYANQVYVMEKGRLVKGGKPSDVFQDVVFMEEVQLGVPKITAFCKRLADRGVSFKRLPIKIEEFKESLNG
Sequence of ECF‐module (EcfTAA′) (A0A0H2ZPG6 entry or part of it): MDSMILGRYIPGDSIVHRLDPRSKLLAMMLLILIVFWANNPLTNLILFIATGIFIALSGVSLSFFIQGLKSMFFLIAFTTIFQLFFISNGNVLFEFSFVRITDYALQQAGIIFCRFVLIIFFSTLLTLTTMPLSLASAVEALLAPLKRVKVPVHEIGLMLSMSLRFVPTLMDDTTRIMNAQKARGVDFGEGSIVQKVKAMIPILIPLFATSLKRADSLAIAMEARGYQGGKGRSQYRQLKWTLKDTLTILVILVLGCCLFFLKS

Row | SMILES | IC50 (Lactobacillus casei) [µM] | Kd (ECF‐module (EcfTAA′)) [µM] | larval survival (S. pneumoniae DSM‐20566; compound at 10 μM) | larval survival (S. pneumoniae DSM‐20566; compound at 50 μM)
1 | O=C(O)c1cccc(NCc2ccc(-c3ccc(Cl)cc3)o2)c1 [Compound 4] | 321 ± 200 | > 200 | 40% | 60%
2 | O=C(O)c1cccc(NCc2ccc(-c3ccccc3Cl)o2)c1 [Compound 6] | 285 ± 293 | > 200 | – | –
3 | CC(C)(C)OC(=O)Nc1ccc(OCc2cccc3ccccc23)cc1C(=O)O [Compound 3] | – | > 200 | 60% | 50%
4 | O=C(O)c1cc(OCc2ccc(Br)c3ccccc23)ccc1O [Compound 2] | – | > 200 | up to 70% | up to 70%
5 | O=C(O)c1cc(OCc2cccc3ccccc23)ccc1O [Compound 1] | – | > 200 | – | –
6 | O=C(O)c1cccc(NCc2ccc(-c3cccc(Cl)c3)o2)c1 [Compound 5] | 247 ± 78 | > 200 | – | –
